Measured values reported in patent US20080014614A1, “Labeling of rapamycin using rapamycin-specific methylases” (Wyeth, priority 2004, published 2008).

System: RapM methylase
Test: In vitro methylation of desmethyl-rapamycin substrates by recombinant RapM methylase crude extract, HPLC analysis
Format: biochemical, Streptomyces hygroscopicus
Conditions: recombinant E. coli cell extract, SAM as methyl donor, phosphate buffer pH 7.5, HPLC chromatograms
Experimental: The RapI, RapM and RapQ proteins were then expressed in E. coli strain BL21(DE3) cells using the Novagen pET24 inducible plasmid expression vector. In this vector, cloned genes are expressed from a T7 promoter by T7 RNA polymerase, and expression is activated by IPTG addition.
For crude extracts of the cloned methylase proteins, 25 mL cultures of induced cells were collected by centrifugation and the pellets frozen. The pellets were resuspended in 10 mL 50 mM potassium phosphate buffer, pH 7.5, containing 1 mM β-mercaptoethanol. Thereafter, lysozyme was added to a final concentration of 100 μg/ml and Benzonase™ nuclease was added (1 μL/mL cells). Cells were sonicated for 1 to 2 min on ice and cell debris was removed by centrifugation at ˜30,000×g, 4° C. for 15 min. Supernatants were adjusted to ˜10% glycerol prior to freezing at −70° C.
Approximately 65 μL of crude methylase extract was added to a reaction containing 3 μL of 1 mg/mL 7-desmethyl- rapamycin (7-dmr) solution, 5 μL of 4 mM SAM, 4 μL of 0.1 M MgSO4, and 23 μL of a 0.5 M phosphate buffer, adjusted to pH 7.5. Methylation reactions using the recombinant cell extracts were carried out as described above, except that 50 μL of extract and 38 μL of buffer were used.

Compound	Conversion of the desmethyl-rapamycin substrate to rapamycin by RapM methylase (substrate specificity)
CO[C@@H]1C[C@H](C[C@@H](C)[C@@H]2CC(=O)[C@H](C)/C=C(\C)[C@@H](O)[C@@H](OC)C(=O)[C@H](C)C[C@H](C)\C=C/C=C/C=C(\C)[C@@H](O)C[C@@H]3CC[C@@H](C)[C@@](O)(O3)C(=O)C(=O)N3CCCC[C@H]3C(=O)O2)CC[C@H]1O [7-dmr, 7-O-desmethyl-rapamycin]	generated rapamycin
32-O-desmethyl-rapamycin [32-dmr]	did not modify
